Laboratory results as given in patent US7250397B2, “Antiarrhythmic peptides” (Zealand Pharma A/S, priority 2000, dated 2007).
[ ]: non-standard residue; d: D form. Hyp = O=C(O)[C@@H]1C[C@@H](O)CN1

What was measured:
[1] = In vitro stability test in rabbit plasma (heparin); assay type: in vitro ADME; settings: 37° C., 0.1 mg/ml, mean n=3
Method: (§1) The stability of peptides is analysed in different plasma and serum types. The peptides are incubated at 37° C. in plasma and samples taken at approx. 9 regular intervals between t=0 and t=156 min are analysed by HPLC.
(§2) This is done by subsequent injections of the drug, plasma, and a co-injection with the drug and the plasma, followed by optimisation of the LC method parameters until a satisfactory separation is obtained. Three parallel experiments are performed for each plasma type:100 μl of peptide is mixed with 900 μl plasma at t=0 and incubated at 37° C. (drug-plasma mixture conc. 0.1 mg/ml). Samples of 100 μl of the drug-plasma mixture are removed at appropriate intervals and the degradation stopped by precipitation of the sample with 10 μl MeCN:TFA 50:50 v/v. A control plasma sample without the drug treated in the same manner is also taken. The plasma samples are centrifuged for 15 min. at 12,000 rpm (Eppendorf centrifuge) at ambient temperature. The resulting supernatant solution is transferred to 300 μl HP autosamler vials and analyzed by HPLC. […] Temp.: 40° C. • Solvent: MeCN/MQW/TFA (0.1%). Run time: 25 min. • Inj.vol.:15 μL. […]
(§3) The samples are analyzed in the following order: blank, the peptide at 0.1 mg/mL, the plasma without the peptide, the three parallel samples for t=0, the three parallel samples for t=5 min. the three parallel samples for t=10 min. etc. […]

[2] = In vitro stability test in human serum; assay type: in vitro ADME; settings: 37° C., 0.1 mg/ml, mean n=3
Method: as §1, §2, §3

human osteoblastic cells = assay: Lucifer Yellow dye transfer in DDT-treated human osteoblast cells; assay type: cell-based; settings: DDT 13 μM, 60 minutes; control 14.5 cells
Method: Human osteoblast cells: Cells were isolated from human bone marrow obtained by puncture of the posterior iliac spine of healthy volunteers (aged 20-36): 10-15 ml marrow material was collected in 15 ml PBS+Ca, Mg (Life Technologies, Cat.No. 14040) with 100 U/ml Heparin (Sigma, Cat.No. H-3149). The mononuclear fraction of the marrow was isolated on a Lymphoprep gradient (Nycomed Pharma, Cat.No. 1001967), by centrifugation at 2200 rpm for 30 min. After harvesting, the mononuclear fraction was washed once with culture medium and centrifuged at 1800 rpm for 10 min. Subsequently cells were counted and plated in culture medium at 8×10^6 cells/100 mm dish. hOB medium (all reagents obtained from Life Technologies): MEM w/o Phenol Red w/Glutamax (Cat.No. 041-93013) supplemented with 10% heat inactivated fetal calf serum (Cat.No. 10106) and 0.1% Penicillin/Streptomycin (Cat.No. 15140). Medium was changed the following day and the cells were cultured at 37° C. in 5%CO2 with medium change every 7 days. After 3-4 weeks of culture the cells had reached 70% confluence. The medium was then supplemented with 100 nM Dexamethasone (Sigma, Cat.No. D-4902) for 7 days. […]
The dye Lucifer Yellow (LY) was injected into one single human osteoblast in a monolayer. After 30 seconds, the number of cells containing dye was assessed. […]

| Compound | T1/2 [1] [h] | T1/2 [2] [h] | median number of cells containing dye (human osteoblastic cells) [cells] |
| --- | --- | --- | --- |
| H-PYNGAG[Hyp]-NH2 [Compound 27] | 3.8 | 3.1 |  |
| Clc1ccc(C(c2ccc(Cl)cc2)C(Cl)(Cl)Cl)cc1 [DDT, 1,1-bis(p-chlorophenyl)-2,2,2-trichlorethane] |  |  | 7 |
